Ends that are not written are not given here.
What was measured:
[1] = system: T cells activated by PMA/ionomycin; experiment: T-cell activation induced by PMA/ionomycin; assay type: cell-based, mice
Method: (§1) For some experiments, T cells were activated with immobilized anti-CD3 antibodies (Kaleeba et al., 1998, Int. Immunol. 10, 453-461) or PMA/ionomycin as described (Wang et al., 2002 Clin. Immunol. 105, 199-207). After 72 hours, at 37° C. in a 7.5% CO2 humidified atmosphere, the T-cells were pulsed with 1 μCi (H^3) thymidine, with a specific activity of 5.0 Ci/mmol, for 7 hours, and (H^3) thymidine incorporation was measured using a 96-well plate beta-counter. The mean cpm±Standard Error was calculated for each triplicate or quadruplicate. The results of T-cell proliferation experiments are shown as the percentage of T-cell proliferation inhibition triggered by the antigen in the absence of gp41 TMD peptides.
PMA/ionomycin activates the T cell downstream of the membrane regardless of the presence or absence of the TCR.

[2] = system: T-cell line specific to MOG p35-55; experiment: T-cell proliferation induced by MOG 35-55 peptide and APC (H3-thymidine uptake); assay type: cell-based, mice; conditions: for cell survival in culture versus PBS control: T cells incubated with peptide
Method: T-cells were plated onto round 96-well plates in medium containing RPMI-1640 supplemented with 2.5% fetal calf serum (FCS), 100 U/ml penicillin, 100 μg/ml streptomycin, 50 μM 2β-mercaptoethanol, and 2 mM L-glutamine. 12×10^4 cells of the T-cell line specific to MOG p35-55, 5×10^5 irradiated (3000 rad) spleen cells (APC), and 10 μg/ml of MOG p35-55 were added to each well. In addition, peptides corresponding to the gp41 TMD region were added. Each determination was made at least in triplicate.
In order to exclude interaction between the examined peptides and the MOG p35-55 antigen, the MOG p35-55 antigen was initially added to the APCs in a test tube, and in a second test tube, the examined peptides were added to the T-cells. After 1 hour, the APCs and the T-cells were mixed and incubated for 72 h in a 96 well round bottom plate.
as §1
Lymph node cells were prepared from MOG 35-55/CFA immunized mice and their T cell response to the MOG 35-55 peptide was studied. T-cells were activated with the MOG 35-55 peptide and APC in the presence of gp41 TMD and TM11-19 (GLVGLRIVF; SEQ ID NO: 6) in three different concentrations (5, 25 and 50 μg/ml) and the proliferative responses was assayed. The T cell line proliferative response was determined after 3 days of incubation using a H3-thymidine uptake assay. […] The uninhibited T-cell proliferative responses were 9382±891 cpm.

TLR2 TMD = molecular target: T1, TLR2 TMD (Homo sapiens, UniProt O60603); experiment: FRET between NBD labeled peptides and TLR2-Rho in LUVs; assay type: binding; conditions: 100 μM LUVs; peptide 0.4 μM; TLR2-Rho 0.025-0.8 μM
T1 construct: made in house; host or cells: chemical synthesis (Fmoc solid phase, Rink amide resin)
T1 sequence (O60603 589-609 limits assumed): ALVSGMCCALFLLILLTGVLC
Method: (§2) Thin films of PC were generated after dissolving the lipids in a 2:1 (v/v) mixture of CHCL3/MeOH and drying them under a stream of nitrogen gas while rotating them. The films were lyophilized overnight, sealed with argon gas to prevent oxidation of the lipids, and stored at −20° C. Before the experiments, films were suspended in the appropriate buffer and vortexed for 1.5 min. The lipid suspension underwent five cycles of freezing-thawing and extrusion through polycarbonate membranes with 1- and 0.1-μm diameter pores to create large unilamellar vesicles.
(§3) The FRET experiments were performed by using NBD and Rho labeled peptides. Fluorescence spectra were obtained at room temperature, with excitation set at 467 nm (10-nm slit) and emission scan at 500-600 nm (10-nm slits). […] Fluorescence spectra were obtained before and after addition of the Rho labeled peptide. The fluorescence values were corrected by subtracting the corresponding blank (buffer with the same vesicles concentration). […]
The energy transfer from the association of the gp41 TMD and the TLR2 TMD peptides was measured in the presence of 100 μM LUVs. […] As a control, the energy transfer between TLR2 and TAR1p/s (MVLGVFALLPLISGSL; SEQ ID NO:39) was measured. […]

[3] = system: T-cells activated with anti-CD3; experiment: T-cell activation induced by mitogenic anti-CD3 antibodies; assay type: cell-based, mice; conditions: 1 μg/ml anti-CD3 and APC; 50 μg/ml peptide
Method: as §1
Mitogenic anti-CD3 antibodies activate CD3 signaling regardless of the presence or absence of TCR (Keppler et al., 2006, J. Leukoc. Biol. 79, 616-627). Thus, T-cells were activated with 1 μg/ml anti-CD3 and APC in the presence of 50 μg/ml gp41 TMD or gp41 TM11-19, and the proliferative responses were assayed. The TCRα Core Peptide (GLRILLLKV; SEQ ID NO: 37; TCRα CP) served as a control peptide.

CD3 molecules = experiment: Co-localization of NBD-labeled peptides with CD3/TCR molecules in T cells (confocal fluorescence microscopy); assay type: cell-based, mice; conditions: NBD-conjugated peptide 2 μM, 1 h at 37° C., MOG35-55 T-cells
Method: Resting MOG35-55 T-cells or after activation for 72 h with MOG35-55 and APC were blocked with 1% BSA at room temperature to block non-specific binding. After 30 min the cells were washed and divided into aliquots containing 100,000 cells per 100 μl, and either gp41 TMD or a control membrane-binding amphipathic peptide (AMP-scr) was added (final concentration of 2 μM) for 1 h at 37° c. The cells were then washed and labeled with the tested antibody for 25 min at RT followed by biotin-conjugated anti-hamster IgG 25 min at RT and Streptavidin PE-Cy-5 10 min at RT (eBioscience San-Diego Calif., USA). Anti-hamster IgG followed by Streptavidin-Cy-5 served as a measure of non-specific binding amphipathic (AMP) peptide served as low TCR affinity control. The cells were analyzed by confocal fluorescence microscopy using Lab-Tek 8 chambers cover-glass (nunc) with living cells. The labeled cell samples were observed under a fluorescence confocal microscope. PE-Cy-5 excitation was done with HeNe laser 633 nm (emission data was collected with filter BA660IF, 660 nm long pass). NBD excitation was done with Ar laser 488 nm (emission data was collected from 505-525 nm). The co-localization percentage was quantified suing the “Simple PCI” software, and calculated as: (Co-localization fluorescence/NBD fluorescence)×100=co-localization percentage. […]

[4] = system: RAW264.7 macrophage cells; experiment: TNFα secretion from RAW264.7 macrophages (ELISA); assay type: cell-based; conditions: peptide 20 μM for 2 hours
Method: RAW264.7 macrophage cells were plated in a 96 well plate at a concentration of 20,000 cells per well and grown over-night in RPMI medium supplemented with 10% FBS and 1% Pen-Strep and 1% L-glutamine at 37 degrees with 5% CO2. The following day media was changed and the gp41 TMD peptide was added at a concentration of 20 μM—dissolved in DMSO and diluted 1:100. The cells were incubated in the presence of the peptide for 2 hours afterwards the media was removed and cells were washed twice with 100 μl of fresh media. Lipopolysaccharide (LPS) and Lipoteichoic acid (LTA) ligands were added for 5 hours (LPS was added at the concentration of 10 ng/ml and LTA added at 500 ng/ml; cells were grown at this time with 200 μl). After 5 hours 150 were taken for the measurement of TNFα by an ELISA kit.
RAW264.7 macrophages were grown in the presence of gp41 TMD peptides for 2 hours at a concentration of 20 μM. As controls, RAW264.7 macrophages were grown in the presence of GGG peptides or in the absence of peptides (FIG. 10, GGG and Control, respectively). Thereafter, the medium was washed twice and 500 ng/ml of LTA or 10 ng/ml of LPS was added for 5 hours. In order to evaluate TNFα levels an ELISA assay was performed. Results are shown normalized to the level of TNFα secretion induced by the ligands in the absence of peptides (FIG. 10 Control). The result is an average of three measurements.

TCRα CP peptide = molecular target: T2, TCRα CP peptide (Mus musculus, UniProt P01849); experiment: FRET between TCRα CP-NBD and Rho labeled peptides in PC LUV; assay type: binding; conditions: acceptor-to-lipid ratio of 1:1000
T2 construct: TCRα CP peptide was labeled with NBD, as a donor fluorophore; made in house; host or cells: chemical synthesis (Fmoc solid phase, Rink amide resin)
Method: as §2, §3
Further investigations were performed to reveal whether gp41 TMD interacts solely with CD3 or perhaps it interacts with the TCRα TMD. […] Then, the fluorescence energy transfer (FRET) was measured between fluorescently labeled TCRα CP-NBD peptide and gp41 TM-Rho, TCRα CP-Rho or TAR/PS-Rho. […]

## GLRILLLKV [TCRα CP, reference compound]
[1]
  inhibition of T cell activation by PMA/ionomycin: did not inhibit

## GLVGLRIVF-NH2 [TM11-19, GLVGLRIVF]
[2]
  cell survival in culture versus PBS control: same survival in culture

## KKKLFIMIVGGLVGLRIVFAVLSIKKK [gp41 TMD]
[1]
  inhibition of T cell activation by PMA/ionomycin: did not inhibit
TLR2 TMD
  percent of energy transfer with TLR2-Rho: over 60%
[3]
  inhibition of T-cell activation by mitogenic anti-CD3 antibodies: inhibited
[2]; MOG 35-55 peptide and APC, 5, 25 and 50 μg/ml peptide, 3 days, H3-thymidine uptake
  inhibition of T-cell proliferation: dose dependent inhibition
[2]
  cell survival in culture versus PBS control: same survival in culture
CD3 molecules
  co-localization percentage with the CD3 molecules: 58.8%
[4]; then 10 ng/ml LPS for 5 hours
  TNFα secretion in response to LPS: reduces TNFα secretion
[4]; then 500 ng/ml LTA for 5 hours
  TNFα secretion in response to LTA: inhibits TNFα secretion

## MVLGVFALLPLISGSL [TAR1p/s, reference compound]
TLR2 TMD
  percent of energy transfer with TLR2-Rho: no energy transfer was detected

## TCRα CP-Rho: TCRα CP peptide labeled with Rho-TAMRA as an acceptor fluorophore (GLRILLLKV-NH2; also: labeled with Rho-TAMRA, position not given here)
TCRα CP peptide
  energy transfer from TCRα CP-NBD: ~37%

Source: patent US8986712B2, “Peptides derived from HIV-1 gp41 transmembrane domain for t-immunomodulation” (Yeda Research and Development Co., Ltd., priority 2009, dated 2015)
